Assay results published in US6914045B2, “Glycopeptide antibiotics” (Wyeth Holdings Corporation, priority 2001, dated 2005).
In brackets after ≈: the same amount, converted by molar mass.

Tests used:
Experiment in all cases: in vitro antibacterial evaluation, MIC by broth dilution
Assay type in all cases: cell-based
Streptococcus sp. = conditions: broth dilution, 18 hours at 35° C.
How it was run: (§1)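 Read-out: the lowest concentration at which the test strain fails to grow. Serial dilutions (64-0.06 μg/mL) in Muller-Hinton II […], 5×10^5 CFU/mL inoculum, NCCLS M7-A2 procedure.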

Escherichia coli = conditions: 18 hours at 35° C.
How it was run: as §1

Enterococcus sp. = conditions: broth dilution, 18 hours at 35° C.
How it was run: as §1

Staphylococcus sp. = conditions: broth dilution, 18 hours at 35° C.
How it was run: as §1

CC(C)=CCCC(C)C1OCC2OC(OC3C(CO)OC(Oc4ccc(CC5NC(=O)C(C(C)c6ccccc6)NC(=O)CNC(=O)C(CO)NC(=O)C(C(O)C6CNC(=N)N6C6OC(CO)C(O)C(O)C6O)NC(=O)C(C(O)C6CNC(=N)N6)NC5=O)cc4)C(O)C3O)C(O)C(O)C2O1 (stereo not shown) [Example 125]
MIC Streptococcus agalactiae (GC 4564) (Streptococcus sp.; Streptococcus agalactiae (GC 4564)): 1 µg/mL (≈ 0.705 µM) | MIC Streptococcus pneumoniae (ATCC 6301) (Streptococcus sp.; Streptococcus pneumoniae (ATCC 6301)): 0.25 µg/mL (≈ 0.176 µM) | MIC Streptococcus pneumoniae (GC 1894) (Streptococcus sp.; Streptococcus pneumoniae (GC 1894)): 0.12 µg/mL (≈ 0.0847 µM) | MIC Streptococcus pneumoniae (GC 4565) (Streptococcus sp.; Streptococcus pneumoniae (GC 4565)): 0.25 µg/mL (≈ 0.176 µM) | MIC Streptococcus pyogenes (GC 4563) (Streptococcus sp.; Streptococcus pyogenes (GC 4563)): 0.5 µg/mL (≈ 0.353 µM) | MIC Streptococcus pneumoniae (ATCC 6301) (Streptococcus sp.; strain ATCC 6301): 0.25 µg/mL (≈ 0.176 µM) | MIC Streptococcus pneumoniae (GC 1894) (Streptococcus sp.; strain GC 1894): 0.12 µg/mL (≈ 0.0847 µM) | MIC Streptococcus pyogenes (GC 4563) (Streptococcus sp.; strain GC 4563): 0.5 µg/mL (≈ 0.353 µM) | MIC Streptococcus agalactiae (GC 4564) (Streptococcus sp.; strain GC 4564): 1 µg/mL (≈ 0.705 µM) | MIC Streptococcus pneumoniae (GC 4565) (Streptococcus sp.; strain GC 4565): 0.25 µg/mL (≈ 0.176 µM) | MIC Escherichia coli (ATCC 25922) (Escherichia coli; strain ATCC 25922): >64 µg/mL | MIC Escherichia coli (GC 4559) (Escherichia coli; strain GC 4559): >64 µg/mL | MIC Escherichia coli (GC 4560) (Escherichia coli; strain GC 4560): 32 µg/mL (≈ 22.6 µM) | MIC Enterococcus avium (GC 4558) (Enterococcus sp.; Enterococcus avium (GC 4558)): 32 µg/mL (≈ 22.6 µM) | MIC Enterococcus faecalis (ATCC 29212) (Enterococcus sp.; Enterococcus faecalis (ATCC 29212)): 32 µg/mL (≈ 22.6 µM) | MIC Enterococcus faecalis (GC 2242) (Enterococcus sp.; Enterococcus faecalis (GC 2242)): 32 µg/mL (≈ 22.6 µM) | MIC Enterococcus faecalis (GC 2691) (Enterococcus sp.; Enterococcus faecalis (GC 2691)): 32 µg/mL (≈ 22.6 µM) | MIC Enterococcus faecalis (GC 3059) (Enterococcus sp.; Enterococcus faecalis (GC 3059)): 32 µg/mL (≈ 22.6 µM) | MIC Enterococcus faecalis (GC 4552) (Enterococcus sp.; Enterococcus faecalis (GC 4552)): 32 µg/mL (≈ 22.6 µM) | MIC Enterococcus faecalis (GC 4553) (Enterococcus sp.; Enterococcus faecalis (GC 4553)): 32 µg/mL (≈ 22.6 µM) | MIC Enterococcus faecalis (GC 4554) (Enterococcus sp.; Enterococcus faecalis (GC 4554)): 32 µg/mL (≈ 22.6 µM) | MIC Enterococcus faecalis (GC 6189) (Enterococcus sp.; Enterococcus faecalis (GC 6189)): 32 µg/mL (≈ 22.6 µM) | MIC Enterococcus faecium (GC 2243) (Enterococcus sp.; Enterococcus faecium (GC 2243)): 32 µg/mL (≈ 22.6 µM) | MIC Enterococcus faecium (GC 4556) (Enterococcus sp.; Enterococcus faecium (GC 4556)): 32 µg/mL (≈ 22.6 µM) | MIC Enterococcus faecium (GC 4557) (Enterococcus sp.; Enterococcus faecium (GC 4557)): 16 µg/mL (≈ 11.3 µM) | MIC Enterococcus faecalis (ATCC 29212) (Enterococcus sp.; strain ATCC 29212): 32 µg/mL (≈ 22.6 µM) | MIC Enterococcus faecalis (GC 2242) (Enterococcus sp.; strain GC 2242): 32 µg/mL (≈ 22.6 µM) | MIC Enterococcus faecium (GC 2243) (Enterococcus sp.; strain GC 2243): 32 µg/mL (≈ 22.6 µM) | MIC Enterococcus faecalis (GC 2691) (Enterococcus sp.; strain GC 2691): 32 µg/mL (≈ 22.6 µM) | MIC Enterococcus faecalis (GC 3059) (Enterococcus sp.; strain GC 3059): 32 µg/mL (≈ 22.6 µM) | MIC Enterococcus faecalis (GC 4552) (Enterococcus sp.; strain GC 4552): 32 µg/mL (≈ 22.6 µM) | MIC Enterococcus faecalis (GC 4553) (Enterococcus sp.; strain GC 4553): 32 µg/mL (≈ 22.6 µM) | MIC Enterococcus faecalis (GC 4554) (Enterococcus sp.; strain GC 4554): 32 µg/mL (≈ 22.6 µM) | MIC Enterococcus faecium (GC 4556) (Enterococcus sp.; strain GC 4556): 32 µg/mL (≈ 22.6 µM) | MIC Enterococcus faecium (GC 4557) (Enterococcus sp.; strain GC 4557): 16 µg/mL (≈ 11.3 µM) | MIC Enterococcus avium (GC 4558) (Enterococcus sp.; strain GC 4558): 32 µg/mL (≈ 22.6 µM) | MIC Enterococcus faecalis (GC 6189) (Enterococcus sp.; strain GC 6189): 32 µg/mL (≈ 22.6 µM) | MIC Staphylococcus aureus (ATCC 29213) (Staphylococcus sp.): 32 µg/mL (≈ 22.6 µM) | MIC Staphylococcus aureus (GC 1131) (Staphylococcus sp.): 32 µg/mL (≈ 22.6 µM) | MIC Staphylococcus aureus (GC 3051) (Staphylococcus sp.): 32 µg/mL (≈ 22.6 µM) | MIC Staphylococcus aureus (GC 3053) (Staphylococcus sp.): 32 µg/mL (≈ 22.6 µM) | MIC Staphylococcus aureus (GC 4541) (Staphylococcus sp.): 8 µg/mL (≈ 5.64 µM) | MIC Staphylococcus aureus (GC 4542) (Staphylococcus sp.): 32 µg/mL (≈ 22.6 µM) | MIC Staphylococcus aureus (GC 4544) (Staphylococcus sp.): 32 µg/mL (≈ 22.6 µM) | MIC Staphylococcus aureus (GC 4545) (Staphylococcus sp.): 32 µg/mL (≈ 22.6 µM) | MIC Staphylococcus aureus (GC 1131) (Staphylococcus sp.; inoculum 5×10^5 CFU/mL, strain GC 1131): 32 µg/mL (≈ 22.6 µM) | MIC Staphylococcus aureus (ATCC 29213) (Staphylococcus sp.; strain ATCC 29213): 32 µg/mL (≈ 22.6 µM) | MIC Staphylococcus aureus (GC 3051) (Staphylococcus sp.; strain GC 3051): 32 µg/mL (≈ 22.6 µM) | MIC Staphylococcus aureus (GC 3053) (Staphylococcus sp.; strain GC 3053): 32 µg/mL (≈ 22.6 µM) | MIC Staphylococcus aureus (GC 4541) (Staphylococcus sp.; strain GC 4541): 8 µg/mL (≈ 5.64 µM) | MIC Staphylococcus aureus (GC 4542) (Staphylococcus sp.; strain GC 4542): 32 µg/mL (≈ 22.6 µM) | MIC Staphylococcus aureus-SMITH (GC 4543) (Staphylococcus sp.; strain GC 4543): 32 µg/mL (≈ 22.6 µM) | MIC Staphylococcus aureus (GC 4544) (Staphylococcus sp.; strain GC 4544): 32 µg/mL (≈ 22.6 µM) | MIC Staphylococcus aureus (GC 4545) (Staphylococcus sp.; strain GC 4545): 32 µg/mL (≈ 22.6 µM) | MIC Staphylococcus haemolyticus (GC 4546) (Staphylococcus sp.; strain GC 4546): 32 µg/mL (≈ 22.6 µM) | MIC Coagulase Negative Staphylococcus (GC 4547) (Staphylococcus sp.; strain GC 4547): 32 µg/mL (≈ 22.6 µM) | MIC Coagulase Negative Staphylococcus (GC 4548) (Staphylococcus sp.; strain GC 4548): 32 µg/mL (≈ 22.6 µM) | MIC Coagulase Negative Staphylococcus (GC 4549) (Staphylococcus sp.; strain GC 4549): 32 µg/mL (≈ 22.6 µM) | MIC Coagulase Negative Staphylococcus (GC 4551) (Staphylococcus sp.; strain GC 4551): 32 µg/mL (≈ 22.6 µM) | MIC Coagulase Negative Staphylococcus (GC 6257) (Staphylococcus sp.; strain GC 6257): 32 µg/mL (≈ 22.6 µM) | MIC Staphylococcus aureus-SMITH (GC 4543) (Staphylococcus sp.; strain SMITH GC 4543): 32 µg/mL (≈ 22.6 µM)
